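Exposure lasted 48 hours, with cells grown in 96-well plates and compounds tested at five concentrations. Abbreviation: GI50, concentration required for 50% inhibition of growth.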 Activity calls are given as the source filed them. Cut-off read from the data, not from the text of the source: active = GI50 up to about 1.1 µM and inactive = higher.
How the values were obtained:
Experiment in all cases: growth of human tumour cells (NCI), 48 h
MDA-MB-231 = tested on: MDA-MB-231
HT-29 = tested on: HT-29
DU-145 = tested on: DU-145
KM12 = tested on: KM12
HL-60 = tested on: HL-60
SK-MEL-28 = tested on: SK-MEL-28
SK-OV-3 = tested on: SK-OV-3
SF-539 = tested on: SF-539
786-0 = tested on: 786-0
UACC-62 = tested on: UACC-62
SNB-75 = tested on: SNB-75
ACHN = tested on: ACHN
UACC-257 = tested on: UACC-257
TK-10 = tested on: TK-10
SW-620 = tested on: SW-620
BT-549 = tested on: BT-549
Hs-578T = tested on: Hs-578T
NCI-H23 = tested on: NCI-H23
SN12C = tested on: SN12C

Measured: GI50

CCOC(=O)c1c(NC(=O)Nc2ccccc2)c(C(N)=O)c2n1CCCCC2
inactive: MDA-MB-231 > 100 µM | HT-29 > 100 µM | DU-145 > 100 µM | KM12 > 100 µM | HL-60 > 100 µM | SK-MEL-28 > 100 µM | SK-OV-3 > 100 µM | SF-539 > 100 µM | 786-0 > 100 µM | UACC-62 > 100 µM | SNB-75 > 100 µM | ACHN > 100 µM | UACC-257 > 100 µM | TK-10 > 100 µM | SW-620 > 100 µM | BT-549 > 100 µM | Hs-578T > 100 µM | NCI-H23 > 100 µM

CN1C2=Nc3n(C)c4ccccc4[n+]3CN2c2ccccc21
inactive: MDA-MB-231 34.6 µM | HT-29 38 µM | SN12C 25.8 µM | DU-145 43.3 µM | KM12 8.73 µM | HL-60 > 100 µM | SK-OV-3 > 100 µM | SF-539 69.5 µM | 786-0 36.2 µM | UACC-62 17 µM | ACHN > 100 µM | UACC-257 32.1 µM | TK-10 > 100 µM | SW-620 24.3 µM | BT-549 > 100 µM | Hs-578T 27.5 µM | NCI-H23 26.5 µM

Cc1ccc(S(=O)(=O)N/N=C2/CCCOC2)cc1
inactive: MDA-MB-231 > 100 µM | HT-29 > 100 µM | SN12C > 100 µM | DU-145 > 100 µM | KM12 > 100 µM | HL-60 > 100 µM | SK-MEL-28 > 100 µM | SK-OV-3 > 100 µM | SF-539 > 100 µM | 786-0 > 100 µM | UACC-62 > 100 µM | ACHN > 100 µM | UACC-257 > 100 µM | TK-10 > 100 µM | SW-620 > 100 µM | BT-549 > 100 µM | Hs-578T > 100 µM | NCI-H23 > 100 µM

O=C1/C(=C\c2cccc(Oc3ccccc3)c2)SC(c2ccccc2)N1Cc1ccccc1 (configuration not stated)
inactive: MDA-MB-231 32.9 µM | HT-29 20.2 µM | SN12C 33 µM | DU-145 34.9 µM | KM12 24.5 µM | HL-60 23.3 µM | SK-MEL-28 29.6 µM | SK-OV-3 19.1 µM | SF-539 18.5 µM | 786-0 34.8 µM | UACC-62 29.3 µM | ACHN 52.8 µM | UACC-257 26.6 µM | TK-10 32.1 µM | SW-620 38.3 µM | BT-549 25.2 µM | Hs-578T 29.1 µM | NCI-H23 22.7 µM

C=C1C(=O)OC2CC(=C)C3CC=C(C)C3CC12 (configuration not stated)
inactive: MDA-MB-231 21.5 µM | HT-29 13 µM | SN12C 16.2 µM | DU-145 > 10 µM | KM12 41.1 µM | HL-60 18.3 µM | SK-MEL-28 23.1 µM | SK-OV-3 30.7 µM | SF-539 38.1 µM | 786-0 15.7 µM | UACC-62 10.4 µM | ACHN 18.7 µM | UACC-257 14.4 µM | TK-10 18 µM | SW-620 15.7 µM | BT-549 14.7 µM | Hs-578T 44.7 µM

N#CC1(C#N)N[C@@H](c2ccsc2)[C@H]2C(=O)N(c3ccccc3)C(=O)[C@H]21
inactive: MDA-MB-231 61 µM | HT-29 85.5 µM | SN12C 89.1 µM | DU-145 66.4 µM | KM12 > 100 µM | HL-60 21.4 µM | SK-MEL-28 77.8 µM | SK-OV-3 > 100 µM | 786-0 > 100 µM | UACC-62 28.8 µM | SNB-75 > 100 µM | ACHN > 100 µM | UACC-257 29.6 µM | TK-10 > 100 µM | SW-620 > 100 µM | BT-549 97.7 µM | Hs-578T 83.6 µM | NCI-H23 > 100 µM

CCOC(=O)c1nc2ccccc2nc1Nc1ccc(C(=O)OC)s1
inactive: MDA-MB-231 > 100 µM | HT-29 > 100 µM | SN12C > 100 µM | DU-145 > 100 µM | KM12 > 100 µM | HL-60 > 100 µM | SK-MEL-28 > 100 µM | SF-539 > 100 µM | 786-0 > 100 µM | UACC-62 > 100 µM | SNB-75 > 100 µM | ACHN > 100 µM | UACC-257 > 100 µM | TK-10 > 100 µM | SW-620 > 100 µM | BT-549 > 100 µM | Hs-578T > 100 µM | NCI-H23 > 100 µM

CC(=O)OCCCOCn1c(Cc2ccccc2)c(C)c(=O)[nH]c1=O
inactive: MDA-MB-231 > 100 µM | HT-29 > 100 µM | SN12C > 100 µM | DU-145 > 100 µM | KM12 > 100 µM | SK-MEL-28 > 100 µM | SK-OV-3 > 100 µM | SF-539 > 100 µM | 786-0 > 100 µM | UACC-62 > 100 µM | SNB-75 > 100 µM | ACHN > 100 µM | UACC-257 > 100 µM | TK-10 > 100 µM | SW-620 > 100 µM | BT-549 > 100 µM | Hs-578T > 100 µM | NCI-H23 > 100 µM

CC(C)(C)OC(=O)NC(Cc1ccc(OCc2ccccc2)cn1)C(=O)N1CCCC1 (configuration not stated)
inactive: MDA-MB-231 80 µM | HT-29 54 µM | SN12C 77.6 µM | DU-145 > 100 µM | KM12 65.5 µM | HL-60 49.1 µM | SK-MEL-28 > 100 µM | SF-539 23.2 µM | 786-0 > 100 µM | UACC-62 54.3 µM | SNB-75 77.3 µM | ACHN > 100 µM | UACC-257 37.4 µM | TK-10 > 100 µM | SW-620 > 100 µM | BT-549 31.1 µM | Hs-578T > 100 µM | NCI-H23 45.7 µM

CC(=O)CCCCC(=O)Nc1ccc(CC(NC(=O)OC(C)(C)C)C(=O)NCC(=O)OCc2ccccc2)cc1 (configuration not stated)
inactive: MDA-MB-231 22.5 µM | HT-29 19.6 µM | SN12C 24.7 µM | DU-145 32.7 µM | KM12 29.4 µM | HL-60 19.5 µM | SK-MEL-28 19.3 µM | SK-OV-3 23 µM | SF-539 18.8 µM | 786-0 21.7 µM | UACC-62 > 10 µM | SNB-75 4.44 µM | ACHN 30.5 µM | TK-10 63.1 µM | SW-620 16.6 µM | BT-549 14.1 µM | Hs-578T 16.1 µM | NCI-H23 30.8 µM

O=C(c1ccccc1)C(C(=O)c1ccccc1)c1nc2ccccc2sc1=O
inactive: MDA-MB-231 11.6 µM | HT-29 17 µM | SN12C 6.22 µM | DU-145 > 25 µM | KM12 12.6 µM | HL-60 > 25 µM | SK-MEL-28 > 25 µM | SK-OV-3 6.46 µM | SF-539 17.1 µM | 786-0 12.1 µM | UACC-62 7.11 µM | ACHN 9.84 µM | UACC-257 > 25 µM | TK-10 16.9 µM | SW-620 15.9 µM | BT-549 5.92 µM | Hs-578T 24.5 µM | NCI-H23 16.6 µM

CN1C(=O)CN(NC(=O)C2=C(O)c3ccc(Br)cc3S(=O)(=O)N2)C1=S
inactive: MDA-MB-231 > 100 µM | HT-29 > 100 µM | SN12C > 100 µM | DU-145 > 100 µM | KM12 78.3 µM | HL-60 33 µM | SK-MEL-28 > 100 µM | SK-OV-3 > 100 µM | 786-0 > 100 µM | UACC-62 > 100 µM | ACHN > 100 µM | UACC-257 > 100 µM | TK-10 > 100 µM | SW-620 > 100 µM | BT-549 > 100 µM | Hs-578T > 100 µM | NCI-H23 > 100 µM

O=C(NNC(=O)c1ccco1)c1ccco1
inactive: MDA-MB-231 > 100 µM | HT-29 > 100 µM | SN12C > 100 µM | DU-145 > 100 µM | KM12 > 100 µM | HL-60 > 100 µM | SK-MEL-28 > 100 µM | SK-OV-3 > 100 µM | SF-539 > 100 µM | 786-0 > 100 µM | UACC-62 > 100 µM | SNB-75 55 µM | UACC-257 > 100 µM | TK-10 > 100 µM | SW-620 > 100 µM | BT-549 > 100 µM | Hs-578T > 100 µM

Nc1cccc2nnccc12
inactive: MDA-MB-231 > 100 µM | HT-29 > 100 µM | SN12C > 100 µM | DU-145 > 100 µM | KM12 > 100 µM | HL-60 > 100 µM | SK-OV-3 > 100 µM | SF-539 > 100 µM | 786-0 > 100 µM | UACC-62 > 100 µM | SNB-75 > 100 µM | ACHN > 100 µM | UACC-257 > 100 µM | TK-10 > 100 µM | SW-620 > 100 µM | BT-549 > 100 µM | Hs-578T > 100 µM | NCI-H23 > 100 µM

CC(=O)Nc1cccc(N2C(=O)/C(=C\c3cccc(Oc4ccccc4)c3)SC2c2ccccc2)c1 (configuration not stated)
inactive: MDA-MB-231 > 100 µM | HT-29 80.7 µM | SN12C > 100 µM | DU-145 > 100 µM | KM12 80.7 µM | HL-60 36.6 µM | SK-MEL-28 79.1 µM | SK-OV-3 76 µM | SF-539 38.4 µM | 786-0 > 100 µM | UACC-62 60.3 µM | ACHN 99.8 µM | UACC-257 > 100 µM | TK-10 97.5 µM | SW-620 54.6 µM | BT-549 > 100 µM | Hs-578T 60 µM | NCI-H23 83.2 µM

Cc1cc(O)nc(/N=C(\N)Nc2ccc(Cl)cc2)n1
inactive: MDA-MB-231 > 100 µM | HT-29 > 100 µM | SN12C > 100 µM | DU-145 > 100 µM | KM12 > 100 µM | HL-60 > 100 µM | SK-MEL-28 > 100 µM | 786-0 > 100 µM | UACC-62 > 100 µM | ACHN > 100 µM | UACC-257 > 100 µM | TK-10 > 100 µM | SW-620 > 100 µM | BT-549 > 100 µM | Hs-578T > 100 µM | NCI-H23 > 100 µM
